In patent US20150018546A1, “HETEROCYCLIC COMPOUND HAVING ANTI-HIV ACTIVITY” (TOYAMA CHEMICAL CO., LTD., priority 2012, published 2015):

Test system: HIV-1 (JRCSF)
Assay: Anti-HIV activity in MaRBLE cells infected with HIV-1 (JRCSF), luciferase readout
Format: cell-based
Settings: Human immunodeficiency virus 1, 168 h; MaRBLE cells (human T lymphocyte-derived HPB-M(a)) infected with HIV-1 (JRCSF); 7 days culture; rate of viral proliferation by luciferase activity; read-out: Anti-HIV activity IC50
Experimental: This test was conducted with reference to Journal of Clinical Microbiology, 2007, Vol. 45, p. 477-487.
The anti-HIV activity was evaluated using MaRBLE cells in which a luciferase gene to be expressed under the control of HIV-1 LTR and a CCR5 gene, etc. were introduced in human T lymphocyte-derived HPB-M(a).
A fresh medium or each appropriately diluted test compound was dispensed to 96-well plates to prepare drug solution-containing plates.
The MaRBLE cells were suspended in RPMI1640 containing 10% FCS (fetal calf serum) and penicillin/streptomycin and infected with HIV-1 (JRCSF). Then, the cells were inoculated to the drug solution-containing plates (1×10^5 cells/well). The same number of uninfected cells were inoculated as a control group to the drug solution-containing plates.
After culture at 37° C. for 7 days in a 5% CO2 atmosphere, the intracellular luciferase activity was measured using Steady-Glo Luciferase assay system (Promega Corp.).
The rate of viral proliferation was determined according to the following expression:
Rate of viral proliferation(%)=(A/B)×100
A=(Firefly luciferase activity of the compound-supplemented well)−(Firefly luciferase activity of the uninfected cells)
B=(Firefly luciferase activity of the compound-free well)−(Firefly luciferase activity of the uninfected cells)
IC50 of the compound was calculated by a plot with concentration as the logarithm and the rate of viral proliferation as the real part using the FORECAST function (linear regression method) of Microsoft Office Excel 2003.

Row | IC50 | SMILES
1 | 63 nM | Cc1ncnc2c1c(NCc1ccc(N)cc1)cc(=O)n2O [Example 125, 5-((4-aminobenzyl)amino)-8-hydroxy-4-methylpyrido[2,3-d]pyrimidin-7(8H)-one]
2 | 68 nM | Cc1ncnc2c1c(NCc1ccccc1OC(F)(F)F)cc(=O)n2O [Example 160, 8-hydroxy-4-methyl-5-((2-(trifluoromethoxy)benzyl)amino)pyrido[2,3-d]pyrimidin-7(8H)-one]
3 | 190 nM | Cc1ncnc2c1c(NCc1ccccc1CN)cc(=O)n2O [Example 140, 5-((2-(aminomethyl)benzyl)amino)-8-hydroxy-4-methylpyrido[2,3-d]pyrimidin-7(8H)-one]
4 | 63 nM | Cc1ncnc2c1c(NCc1ccc3cc[nH]c3c1)cc(=O)n2O [Example 88, 8-hydroxy-5-(((1H-indol-6-yl)methyl)amino)-4-methylpyrido[2,3-d]pyrimidin-7(8H)-one]
5 | 190 nM | O=c1cc(NCc2ccccc2)c2c(-c3ccccc3)ncnc2n1O [Example 60, 5-(benzylamino)-8-hydroxy-4-phenylpyrido[2,3-d]pyrimidin-7(8H)-one]
6 | 140 nM | Cc1ncnc2c1c(NCc1cccc(NS(C)(=O)=O)c1)cc(=O)n2O [Example 126, N-(3-(((8-hydroxy-4-methyl-7-oxo-7,8-dihydropyrido[2,3-d]pyrimidin-5-yl)amino)methyl)phenyl)methanesulfonamide]
7 | 110 nM | COc1ccc(CNc2cc(=O)n(O)c3ncncc23)cc1 [Example 1, 8-hydroxy-5-((4-methoxybenzyl)amino)pyrido[2,3-d]pyrimidin-7(8H)-one]
8 | 59 nM | Cc1ncnc2c1c(NCc1cccc(Cl)c1)cc(=O)n2O [Example 47, 5-((3-chlorobenzyl)amino)-8-hydroxy-4-methylpyrido[2,3-d]pyrimidin-7(8H)-one]
9 | 580 nM | Cc1ncnc2c1c(NC1CCN(C)CC1)cc(=O)n2O [Example 90, 8-hydroxy-4-methyl-5-((1-methylpiperidin-4-yl)amino)pyrido[2,3-d]pyrimidin-7(8H)-one]
10 | 93 nM | Cc1ncccc1CNc1cc(=O)n(O)c2ncnc(C)c12 [Example 48, 8-hydroxy-4-methyl-5-(((2-methylpyridin-3-yl)methyl)amino)pyrido[2,3-d]pyrimidin-7(8H)-one]
11 | 690 nM | O=c1cc(NCCc2ccccc2)c2cncnc2n1O [Example 17, 8-hydroxy-5-((2-phenylethyl)amino)pyrido[2,3-d]pyrimidin-7(8H)-one]
12 | 160 nM | Cc1ncnc2c1c(NC(C)c1ccccn1)cc(=O)n2O (centres unmarked) [Example 165, 8-hydroxy-4-methyl-5-((1-(pyridin-2-yl)ethyl)amino)pyrido[2,3-d]pyrimidin-7(8H)-one]
13 | 500 nM | Cc1ncnc2c1c(NCCc1ccncc1)cc(=O)n2O [Example 86, 8-hydroxy-4-methyl-5-((2-(pyridin-4-yl)ethyl)amino)pyrido[2,3-d]pyrimidin-7(8H)-one]
14 | 490 nM | Cc1ncnc2c1c(NCc1ccc(NS(=O)(=O)c3ccccc3)cc1)cc(=O)n2O [Example 145, N-(4-(((8-hydroxy-4-methyl-7-oxo-7,8-dihydropyrido[2,3-d]pyrimidin-5-yl)amino)methyl)phenyl)benzenesulfonamide]
15 | 180 nM | Cc1ncnc2c1c(NCCCc1cccnc1)cc(=O)n2O [Example 161, 8-hydroxy-4-methyl-5-((3-(pyridin-3-yl)propyl)amino)pyrido[2,3-d]pyrimidin-7(8H)-one]
16 | 120 nM | Cc1cncc(CNc2cc(=O)n(O)c3ncnc(C)c23)c1 [Example 136, 8-hydroxy-4-methyl-5-(((5-methylpyridin-3-yl)methyl)amino)pyrido[2,3-d]pyrimidin-7(8H)-one]
17 | 100 nM | Cc1ncnc2c1c(NCc1ccccc1NS(C)(=O)=O)cc(=O)n2O [Example 122, N-(2-(((8-hydroxy-4-methyl-7-oxo-7,8-dihydropyrido[2,3-d]pyrimidin-5-yl)amino)methyl)phenyl)methanesulfonamide]
18 | 410 nM | O=c1cc(NCC2CCCCC2)c2cncnc2n1O [Example 4, 5-((cyclohexylmethyl)amino)-8-hydroxypyrido[2,3-d]pyrimidin-7(8H)-one]
19 | 280 nM | O=c1cc(Nc2ccccc2)c2cncnc2n1O [Example 16, 5-anilino-8-hydroxypyrido[2,3-d]pyrimidin-7(8H)-one]
20 | 110 nM | Cc1ncnc2c1c(NC1CCCCC1)cc(=O)n2O [Example 37, 5-(cyclohexylamino)-8-hydroxy-4-methylpyrido[2,3-d]pyrimidin-7(8H)-one]
21 | 130 nM | CC(=O)Nc1ccc(CNc2cc(=O)n(O)c3ncnc(C)c23)cc1 [Example 142, N-(4-(((8-hydroxy-4-methyl-7-oxo-7,8-dihydropyrido[2,3-d]pyrimidin-5-yl)amino)methyl)phenyl)acetamide]

Row | IC50 | SMILES
22 | 95 nM | Cc1ncnc2c1c(NCc1ccc(C(C)C)cc1)cc(=O)n2O [Example 152, 8-hydroxy-5-((4-isopropylbenzyl)amino)-4-methylpyrido[2,3-d]pyrimidin-7(8H)-one]
23 | 62 nM | CCN(CC)c1ccc(CNc2cc(=O)n(O)c3ncnc(C)c23)cc1 [Example 39, 5-((4-(diethylamino)benzyl)amino)-8-hydroxy-4-methylpyrido[2,3-d]pyrimidin-7(8H)-one]
24 | 85 nM | Cc1ncnc2c1c(NCc1cccc3[nH]ccc13)cc(=O)n2O [Example 89, 8-hydroxy-5-(((1H-indol-4-yl)methyl)amino)-4-methylpyrido[2,3-d]pyrimidin-7(8H)-one]
25 | 530 nM | O=c1cc(NC2Cc3ccccc3C2)c2cncnc2n1O [Example 10]
26 | 78 nM | Cc1ncnc2c1c(NCc1ccccc1N)cc(=O)n2O [Example 123, 5-((2-aminobenzyl)amino)-8-hydroxy-4-methylpyrido[2,3-d]pyrimidin-7(8H)-one]
27 | 820 nM | O=c1cc(O)c2c(NCc3ccccc3)ncnc2n1O [Example 79, 4-(benzylamino)-5,8-dihydroxypyrido[2,3-d]pyrimidine-7(8H)-one]
28 | 46 nM | Cc1ncnc2c1c(NCc1cncc3ccccc13)cc(=O)n2O [Example 141, 8-hydroxy-5-(((isoquinolin-4-yl)methyl)amino)-4-methylpyrido[2,3-d]pyrimidin-7(8H)-one]
29 | 48 nM | Cc1ncnc2c1c(NCc1ccc(N(C)C)nc1)cc(=O)n2O [Example 40, 5-(((6-(dimethylamino)pyridin-3-yl)methyl)amino)-8-hydroxy-4-methylpyrido[2,3-d]pyrimidin-7(8H)-one]
30 | 82 nM | Cc1cccc(CNc2cc(=O)n(O)c3ncnc(C)c23)c1 [Example 137, 8-hydroxy-4-methyl-5-((3-methylbenzyl)amino)pyrido[2,3-d]pyrimidin-7(8H)-one]
31 | 180 nM | O=c1cc(NCc2ccc(F)cc2F)c2cncnc2n1O [Example 6, 5-((2,4-difluorobenzyl)amino)-8-hydroxypyrido[2,3-d]pyrimidin-7(8H)-one]
32 | 880 nM | Cc1ncnc2c1c(O)cc(=O)n2O [Example 21, 5,8-dihydroxy-4-methylpyrido[2,3-d]pyrimidin-7(8H)-one]
33 | 790 nM | O=C(NCc1ccccc1)c1cc2c(NCc3ccccc3)ncnc2n(O)c1=O [Example 70, N-benzyl-4-(benzylamino)-8-hydroxy-7-oxo-7,8-dihydropyrido[2,3-d]pyrimidine-6-carboxamide]
34 | 81 nM | Cc1ncnc2c1c(Nc1ccccc1)cc(=O)n2O [Example 87, 5-anilino-8-hydroxy-4-methylpyrido[2,3-d]pyrimidin-7(8H)-one]
35 | 310 nM | Cc1ncnc2c1c(NCCc1cccnc1)cc(=O)n2O [Example 85, 8-hydroxy-4-methyl-5-((2-(pyridin-3-yl)ethyl)amino)pyrido[2,3-d]pyrimidin-7(8H)-one]
36 | 590 nM | Cc1ncnc2c1c(NCC1CCN(C)CC1)cc(=O)n2O [Example 156, 8-hydroxy-4-methyl-5-(((1-methylpiperidin-4-yl)methyl)amino)pyrido[2,3-d]pyrimidin-7(8H)-one]
37 | 150 nM | Cc1ncnc2c1c(NCc1ccccc1-c1cccnc1)cc(=O)n2O [Example 72, 8-hydroxy-4-methyl-5-((2-(pyridin-3-yl)benzyl)amino)pyrido[2,3-d]pyrimidin-7(8H)-one]
38 | 560 nM | O=c1cc(O)c2c(Cc3ccccc3)ncnc2n1O [Example 66, 4-benzyl-5,8-dihydroxypyrido[2,3-d]pyrimidin-7(8H)-one]
39 | 42 nM | Cc1ncnc2c1c(NCc1cccc(O)c1)cc(=O)n2O [Example 114, 8-hydroxy-5-((3-hydroxybenzyl)amino)-4-methylpyrido[2,3-d]pyrimidin-7(8H)-one]
40 | 450 nM | Cc1ncnc2c1c(NCc1nc3ccccc3[nH]1)cc(=O)n2O [Example 55, 5-(((1H-benzimidazol-2-yl)methyl)amino)-8-hydroxy-4-methylpyrido[2,3-d]pyrimidin-7(8H)-one]
41 | 270 nM | Cc1ncnc2c1c(NCc1ccc(NS(C)(=O)=O)cc1)cc(=O)n2O [Example 128, N-(4-(((8-hydroxy-4-methyl-7-oxo-7,8-dihydropyrido[2,3-d]pyrimidin-5-yl)amino)methyl)phenyl)methanesulfonamide]
